In ChEMBL document CHEMBL5584243, “Discovery of JNJ-74856665: A Novel Isoquinolinone DHODH Inhibitor for the Treatment of AML” (J Med Chem, 2024):
≈ marks a conversion by molar mass, not a printed value.

How the values were obtained:
MOLM-13 = experiment: Antiproliferative activity against human MOLM-13 cells assessed as inhibition of cell growth incubated for 72 hrs by CellTiter-Glo assay; format: functional, cell-based; settings: MOLM-13, 72 h
[1] = Passive permeability across apical to basolateral side in dog MDCK-MDR1 cells; format: ADME, cell-based, Canis lupus familiaris
[2] = Metabolic stability in human liver microsomes assessed as half life incubated upto 60 mins in presence of NADPH by LC-MS/MS analysis; format: ADME, Microsome
[3] = Metabolic stability in mouse liver microsomes assessed as half life incubated upto 60 mins in presence of NADPH by LC-MS/MS analysis; format: ADME, Microsome
[4] = Equilibrium solubility of compound in PBS at pH 2 incubated for 2 to 5 days by HPLC analysis; format: physicochemical; settings: time 2-5 day; for solubility thermodynamic: PBS
[5] = Equilibrium solubility of compound in PBS at pH 7 incubated for 2 to 5 days by HPLC analysis; format: physicochemical; settings: time 2-5 day
[6] = Lipophilicity, logD of compound; format: physicochemical; settings: octanol/water
[7] = Plasma protein binding in human at 1 uM incubated for 6.5 hrs by LC-MS/MS analysis; format: ADME, cell-free; settings: read-out: PPB (converted)
[8] = Plasma protein binding in C57BL mouse at 1 uM incubated for 6.5 hrs by LC-MS/MS analysis; format: ADME, cell-free; settings: read-out: PPB (converted)
[9] = Volume of distribution at steady state in C57BL mouse at 2 mg/kg,iv measured upto 24 hrs by LC-MS/MS analysis; format: ADME, organism-based; settings: in vivo, read-out: Vdss
[10] = Half life in C57BL mouse at 2 mg/kg,iv measured upto 24 hrs by LC-MS/MS analysis; format: ADME, organism-based; settings: in vivo
[11] = Cmax in C57BL mouse at […] measured upto 24 hrs by LC-MS/MS analysis; format: ADME, organism-based; settings: in vivo
[12] = Tmax in C57BL mouse at […] measured upto 24 hrs by LC-MS/MS analysis; format: ADME, organism-based; settings: in vivo
[13] = AUC (0 to infinity) in C57BL mouse at 2 mg/kg,iv measured upto 24 hrs by LC-MS/MS analysis; format: ADME, organism-based; settings: in vivo
[14] = Oral bioavailability in C57BL mouse at 10 mg/kg measured upto 24 hrs by LC-MS/MS analysis; format: ADME, organism-based; settings: in vivo
[15] = Equilibrium solubility of compound in SGF at pH 1 using amorphous form of sample incubated for 2 to 5 days by HPLC analysis; format: ADME; settings: time 2-5 day
[16] = Equilibrium solubility of compound in FaSSIF at pH 6.5 using amorphous form of sample incubated for 2 to 5 days by HPLC analysis; format: ADME; settings: time 2-5 day
[17] = molecular target: Dihydroorotate dehydrogenase (quinone), mitochondrial (Homo sapiens, UniProt Q02127); experiment: Inhibition of recombinant human DHODH followed by DHO substrate by DCIP dye absorbance based spectrophotometric analysis
[18] = molecular target: T1, Aryl hydrocarbon receptor (Homo sapiens, UniProt P35869); experiment: Activation of AhR (unknown origin) at 1 to 10 uM; settings: dose 1-10 µM
T1 sequence (P35869 whole entry): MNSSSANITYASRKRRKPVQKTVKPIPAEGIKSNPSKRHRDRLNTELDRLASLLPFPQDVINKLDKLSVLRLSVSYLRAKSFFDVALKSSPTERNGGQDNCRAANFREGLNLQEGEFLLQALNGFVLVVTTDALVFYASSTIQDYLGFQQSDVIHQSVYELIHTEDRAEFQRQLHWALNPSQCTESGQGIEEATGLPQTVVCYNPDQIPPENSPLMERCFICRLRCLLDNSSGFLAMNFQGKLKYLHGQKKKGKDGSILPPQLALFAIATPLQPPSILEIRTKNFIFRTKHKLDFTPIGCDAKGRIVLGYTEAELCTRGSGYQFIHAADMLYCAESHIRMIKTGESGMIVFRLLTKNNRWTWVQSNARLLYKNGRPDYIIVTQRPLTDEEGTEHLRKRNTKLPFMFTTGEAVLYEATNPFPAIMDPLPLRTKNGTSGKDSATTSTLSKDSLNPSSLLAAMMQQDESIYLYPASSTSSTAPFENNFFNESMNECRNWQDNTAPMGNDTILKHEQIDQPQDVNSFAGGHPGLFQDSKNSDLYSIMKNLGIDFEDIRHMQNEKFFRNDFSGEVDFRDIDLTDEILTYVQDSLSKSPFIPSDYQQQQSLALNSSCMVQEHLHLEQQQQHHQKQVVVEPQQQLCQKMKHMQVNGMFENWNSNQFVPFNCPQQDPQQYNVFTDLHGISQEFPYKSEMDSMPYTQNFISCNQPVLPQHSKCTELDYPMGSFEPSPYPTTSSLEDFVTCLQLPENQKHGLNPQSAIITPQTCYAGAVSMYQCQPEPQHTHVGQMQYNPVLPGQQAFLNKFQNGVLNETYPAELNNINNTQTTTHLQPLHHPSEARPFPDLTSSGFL

Sequence of Dihydroorotate dehydrogenase (quinone), mitochondrial (Q02127 whole entry): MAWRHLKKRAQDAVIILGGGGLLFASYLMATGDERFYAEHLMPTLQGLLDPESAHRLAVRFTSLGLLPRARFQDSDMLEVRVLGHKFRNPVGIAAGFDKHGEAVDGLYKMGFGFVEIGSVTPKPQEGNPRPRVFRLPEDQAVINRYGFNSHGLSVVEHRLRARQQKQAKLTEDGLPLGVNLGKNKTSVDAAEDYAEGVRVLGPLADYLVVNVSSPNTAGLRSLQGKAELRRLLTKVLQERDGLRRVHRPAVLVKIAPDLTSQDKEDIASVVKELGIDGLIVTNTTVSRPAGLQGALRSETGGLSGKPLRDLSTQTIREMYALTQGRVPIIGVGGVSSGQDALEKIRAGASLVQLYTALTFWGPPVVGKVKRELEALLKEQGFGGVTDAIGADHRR

| Structure (SMILES) | IC50 (MOLM-13) [nM] | Papp A→B [1] [×10⁻⁶ cm/s] | half-life [2] [h] | half-life [3] [h] | solubility thermodynamic [4] [µM] | solubility thermodynamic [5] [µM] | other results |
| --- | --- | --- | --- | --- | --- | --- | --- |
| CCn1c(CO)nn(-c2cc3c(C(C)C)cn(-c4ccccc4C(F)F)c(=O)c3cc2F)c1=O | 0.56 | 39 | 2.98 | > 3 | 228 (≈ 108 µg/mL) | 11 (≈ 5.2 µg/mL) |  |
| C=C(C)c1cn(-c2c(F)cccc2Cl)c(=O)c2cc(F)c(-n3nc(CO)n(CC)c3=O)nc12 | 1.1 |  |  |  |  |  |  |
| CCn1c(CO)nn(-c2cc3c(C(C)C)cn(-c4cc(F)ccc4C)c(=O)c3cc2F)c1=O | 0.86 | 45.9 | > 3 | > 3 | 30 (≈ 13.6 µg/mL) | 30 (≈ 13.6 µg/mL) |  |
| CCn1c(CO)nn(-c2cc3c(C(C)C)cn(-c4ccc(F)cc4C)c(=O)c3cc2F)c1=O | 0.67 | 48.2 | > 3 | > 3 | 25 (≈ 11.4 µg/mL) | 266 (≈ 121 µg/mL) | logD [6]: 2.7 |
| CCn1c(CO)nn(-c2cc3c([C@H](C)C(F)(F)F)cn(-c4ccccc4C)c(=O)c3cc2F)c1=O | 0.59 | 20.3 | > 3 | > 3 | 164 (≈ 80.4 µg/mL) | 180 (≈ 88.3 µg/mL) |  |
| CCn1c(CO)nn(-c2cc3c(C(C)C)cn(-c4c(C)cnc(OC)c4Cl)c(=O)c3cc2F)c1=O | 2.4 | 42.6 | > 3 | > 3 | 78 (≈ 39.2 µg/mL) | 21 (≈ 10.5 µg/mL) | fraction unbound at 6.5 h, 1 µM [7]: 0.059; fraction unbound at 6.5 h, 1 µM [8]: 0.038; Vd [9]: 2.1 L/kg; half-life [10]: 7 h; Cmax [11]: 4100 ng/mL; Tmax [12]: 1.5 h; AUC [13]: 82500 ng·h/mL; bioavailability [14]: 109%; solubility thermodynamic [15]: < 5 µg/mL; solubility thermodynamic [16]: 16 µg/mL (≈ 31.9 µM) |
| CCn1c(CO)nn(-c2cc3c(C(C)C)cn(-c4ccccc4OC)c(=O)c3cc2F)c1=O | 1 | 25.1 | > 3 | > 3 | 19 (≈ 8.6 µg/mL) | 20 (≈ 9.05 µg/mL) |  |
| CCn1c(CO)nn(-c2nc3c(C(C)C)cn(-c4c(F)cccc4Cl)c(=O)c3cc2F)c1=O | 0.44 |  |  |  |  |  |  |
| CCn1c(CO)nn(-c2cc3c(C(C)C)cn(-c4c(C)cccc4F)c(=O)c3cc2F)c1=O | 0.69 | 47.4 | > 3 | > 3 | 23 (≈ 10.5 µg/mL) | 24 (≈ 10.9 µg/mL) |  |
| Cc1oncc1C(=O)Nc1ccc(C(F)(F)F)cc1 [LEFLUNOMIDE] |  |  |  |  |  |  | Activity [18]: Active |
| CCn1c(CO)nn(-c2cc3c(C4(C)CC4)cn(-c4c(F)cccc4Cl)c(=O)c3cc2F)c1=O | 3.1 |  |  |  |  |  |  |

The next lines start with results.

| IC50 (MOLM-13) [nM] | Papp A→B [1] [×10⁻⁶ cm/s] | half-life [2] [h] | half-life [3] [h] | solubility thermodynamic [4] [µM] | solubility thermodynamic [5] [µM] | Structure (SMILES) | other results |
| --- | --- | --- | --- | --- | --- | --- | --- |
| 1.8 | 37.3 | > 3 | 1.83 | 193 (≈ 86.9 µg/mL) | 157 (≈ 70.7 µg/mL) | CCc1ccccc1-n1cc(C(C)C)c2cc(-n3nc(CO)n(CC)c3=O)c(F)cc2c1=O |  |
| 5.6 | 23.5 | > 3 | > 3 | 235 (≈ 107 µg/mL) | 189 (≈ 85.9 µg/mL) | CCn1c(CO)nn(-c2cc3c(C(C)C)cn(-c4cccc(F)c4C)c(=O)c3cc2F)c1=O |  |
| 0.42 | < 41 | > 3 | > 3 | 184 (≈ 90.2 µg/mL) | 181 (≈ 88.8 µg/mL) | CCn1c(CO)nn(-c2cc3c([C@@H](C)C(F)(F)F)cn(-c4ccccc4C)c(=O)c3cc2F)c1=O | logD [6]: 2.6; fraction unbound at 6.5 h, 1 µM [7]: 0.1; fraction unbound at 6.5 h, 1 µM [8]: 0.093; Vd [9]: 1.3 L/kg; half-life [10]: 4 h; Cmax [11]: 4500 ng/mL; Tmax [12]: 1.5 h; AUC [13]: 39000 ng·h/mL; bioavailability [14]: 98%; solubility thermodynamic [15]: < 5 µg/mL; solubility thermodynamic [16]: 41 µg/mL (≈ 83.6 µM) |
| 0.28 | 50.7 | > 3 | > 3 | 153 (≈ 69.9 µg/mL) | 155 (≈ 70.8 µg/mL) | CCn1c(CO)nn(-c2cc3c(C(C)C)cn(-c4ccccc4Cl)c(=O)c3cc2F)c1=O |  |
| 0.16 |  |  |  |  | < 4 | CCn1c(CO)nn(-c2nc(OC(C)C(F)(F)F)c(C(=O)Nc3c(F)cccc3Cl)cc2F)c1=O (configuration not stated) | IC50 [17]: 0.2 nM |
| 0.63 | 40.4 | > 3 | > 3 |  | 39 (≈ 19.1 µg/mL) | CCn1c(CO)nn(-c2cc3c(C(C)C)cn(-c4ccccc4C(F)(F)F)c(=O)c3cc2F)c1=O | solubility ([4]; buffer): Not Active; fraction unbound at 6.5 h, 1 µM [7]: 0.063; fraction unbound at 6.5 h, 1 µM [8]: 0.067; Vd [9]: 1.2 L/kg; half-life [10]: 4.3 h; Cmax [11]: 5700 ng/mL; Tmax [12]: 1.3 h; AUC [13]: 71100 ng·h/mL; bioavailability [14]: 127%; solubility thermodynamic [15]: 17 µg/mL (≈ 34.7 µM); solubility thermodynamic [16]: 97 µg/mL (≈ 198 µM) |
| 2.1 | 30.1 | > 3 | > 3 | 19 (≈ 8.37 µg/mL) | 19 (≈ 8.37 µg/mL) | CCn1c(CO)nn(-c2cc3c(C(C)C)cn(-c4ccccc4F)c(=O)c3cc2F)c1=O |  |
